Data taken from ChEMBL document CHEMBL3272333, “Synthesis and biologic distribution of radioiodinated beta-adrenergic antagonists” (J Med Chem, 1978).

Tests used:
Design in all cases: dose 0.5-1 mg/kg, route intravenous
Heart [1] = test: Biodistribution in Sprague-Dawley rat heart assessed per organ at 0.5 to 1 mg/kg, iv after 1 hr by gamma-well counting analysis; type: ADME, organism-based; conditions: in vivo
Lung [2] = test: Biodistribution in Sprague-Dawley rat lung assessed per organ at 0.5 to 1 mg/kg, iv after 15 mins by gamma-well counting analysis; type: ADME, organism-based; conditions: in vivo, 0.25 h
Muscle tissue [3] = test: Biodistribution in Sprague-Dawley rat muscle assessed per organ at 0.5 to 1 mg/kg, iv after 1 hr by gamma-well counting analysis; type: ADME, organism-based; conditions: in vivo
[4] = Biodistribution in Sprague-Dawley rat fat and fur assessed per organ at 0.5 to 1 mg/kg, iv after 1 hr by gamma-well counting analysis; type: ADME, organism-based, Adipose tissue; conditions: in vivo
Heart [5] = test: Biodistribution in Sprague-Dawley rat heart at 0.5 to 1 mg/kg, iv after 15 mins by gamma-well counting analysis; type: ADME, organism-based; conditions: in vivo, 0.25 h
Stomach [6] = test: Biodistribution in Sprague-Dawley rat stomach assessed per organ at 0.5 to 1 mg/kg, iv after 1 hr by gamma-well counting analysis; type: ADME, organism-based; conditions: in vivo
Kidney [7] = test: Biodistribution in Sprague-Dawley rat kidney at 0.5 to 1 mg/kg, iv after 15 mins by gamma-well counting analysis; type: ADME, organism-based; conditions: in vivo, 0.25 h
Heart [8] = test: Biodistribution in Sprague-Dawley rat heart assessed per organ at 0.5 to 1 mg/kg, iv after 15 mins by gamma-well counting analysis; type: ADME, organism-based; conditions: in vivo, 0.25 h
Heart [9] = test: Biodistribution in Sprague-Dawley rat heart at 0.5 to 1 mg/kg, iv after 1 hr by gamma-well counting analysis; type: ADME, organism-based; conditions: in vivo
Large intestine [10] = test: Biodistribution in Sprague-Dawley rat large intestine assessed per organ at 0.5 to 1 mg/kg, iv after 15 mins by gamma-well counting analysis; type: ADME, organism-based; conditions: in vivo, 0.25 h
Blood [11] = test: Biodistribution in Sprague-Dawley rat blood assessed per organ at 0.5 to 1 mg/kg, iv after 15 mins by gamma-well counting analysis; type: ADME, organism-based; conditions: in vivo, 0.25 h
Kidney [12] = test: Biodistribution in Sprague-Dawley rat kidney assessed per organ at 0.5 to 1 mg/kg, iv after 1 hr by gamma-well counting analysis; type: ADME, organism-based; conditions: in vivo
[13] = Biodistribution in Sprague-Dawley rat fat and fur assessed per organ at 0.5 to 1 mg/kg, iv after 15 mins by gamma-well counting analysis; type: ADME, organism-based, Adipose tissue; conditions: in vivo, 0.25 h
Thyroid gland [14] = test: Biodistribution in Sprague-Dawley rat thyroid assessed per organ at 0.5 to 1 mg/kg, iv after 1 hr by gamma-well counting analysis; type: ADME, organism-based; conditions: in vivo
Stomach [15] = test: Biodistribution in Sprague-Dawley rat stomach assessed per organ at 0.5 to 1 mg/kg, iv after 15 mins by gamma-well counting analysis; type: ADME, organism-based; conditions: in vivo, 0.25 h
Bone [16] = test: Biodistribution in Sprague-Dawley rat bone assessed per organ at 0.5 to 1 mg/kg, iv after 1 hr by gamma-well counting analysis; type: ADME, organism-based, Bone element; conditions: in vivo
Large intestine [17] = test: Biodistribution in Sprague-Dawley rat large intestine assessed per organ at 0.5 to 1 mg/kg, iv after 1 hr by gamma-well counting analysis; type: ADME, organism-based; conditions: in vivo
Liver [18] = test: Biodistribution in Sprague-Dawley rat liver at 0.5 to 1 mg/kg, iv after 15 mins by gamma-well counting analysis; type: ADME, organism-based; conditions: in vivo, 0.25 h
Lung [19] = test: Biodistribution in Sprague-Dawley rat lung assessed per organ at 0.5 to 1 mg/kg, iv after 1 hr by gamma-well counting analysis; type: ADME, organism-based; conditions: in vivo
Spleen [20] = test: Biodistribution in Sprague-Dawley rat spleen at 0.5 to 1 mg/kg, iv after 1 hr by gamma-well counting analysis; type: ADME, organism-based; conditions: in vivo
Muscle tissue [21] = test: Biodistribution in Sprague-Dawley rat muscle at 0.5 to 1 mg/kg, iv after 15 mins by gamma-well counting analysis; type: ADME, organism-based; conditions: in vivo, 0.25 h
Bone [22] = test: Biodistribution in Sprague-Dawley rat bone assessed per organ at 0.5 to 1 mg/kg, iv after 15 mins by gamma-well counting analysis; type: ADME, organism-based, Bone element; conditions: in vivo, 0.25 h
Spleen [23] = test: Biodistribution in Sprague-Dawley rat spleen assessed per organ at 0.5 to 1 mg/kg, iv after 1 hr by gamma-well counting analysis; type: ADME, organism-based; conditions: in vivo
Muscle tissue [24] = test: Biodistribution in Sprague-Dawley rat muscle assessed per organ at 0.5 to 1 mg/kg, iv after 15 mins by gamma-well counting analysis; type: ADME, organism-based; conditions: in vivo, 0.25 h
Bone [25] = test: Biodistribution in Sprague-Dawley rat bone at 0.5 to 1 mg/kg, iv after 1 hr by gamma-well counting analysis; type: ADME, organism-based, Bone element; conditions: in vivo
Kidney [26] = test: Biodistribution in Sprague-Dawley rat kidney assessed per organ at 0.5 to 1 mg/kg, iv after 15 mins by gamma-well counting analysis; type: ADME, organism-based; conditions: in vivo, 0.25 h
Spleen [27] = test: Biodistribution in Sprague-Dawley rat spleen assessed per organ at 0.5 to 1 mg/kg, iv after 15 mins by gamma-well counting analysis; type: ADME, organism-based; conditions: in vivo, 0.25 h
Blood [28] = test: Biodistribution in Sprague-Dawley rat blood at 0.5 to 1 mg/kg, iv after 1 hr by gamma-well counting analysis; type: ADME, organism-based; conditions: in vivo
Liver [29] = test: Biodistribution in Sprague-Dawley rat liver at 0.5 to 1 mg/kg, iv after 1 hr by gamma-well counting analysis; type: ADME, organism-based; conditions: in vivo
Liver [30] = test: Biodistribution in Sprague-Dawley rat liver assessed per organ at 0.5 to 1 mg/kg, iv after 1 hr by gamma-well counting analysis; type: ADME, organism-based; conditions: in vivo
Muscle tissue [31] = test: Biodistribution in Sprague-Dawley rat muscle at 0.5 to 1 mg/kg, iv after 1 hr by gamma-well counting analysis; type: ADME, organism-based; conditions: in vivo
Lung [32] = test: Biodistribution in Sprague-Dawley rat lung at 0.5 to 1 mg/kg, iv after 15 mins by gamma-well counting analysis; type: ADME, organism-based; conditions: in vivo, 0.25 h
Lung [33] = test: Biodistribution in Sprague-Dawley rat lung at 0.5 to 1 mg/kg, iv after 1 hr by gamma-well counting analysis; type: ADME, organism-based; conditions: in vivo
Blood [34] = test: Biodistribution in Sprague-Dawley rat blood assessed per organ at 0.5 to 1 mg/kg, iv after 1 hr by gamma-well counting analysis; type: ADME, organism-based; conditions: in vivo
Small intestine [35] = test: Biodistribution in Sprague-Dawley rat small intestine assessed per organ at 0.5 to 1 mg/kg, iv after 1 hr by gamma-well counting analysis; type: ADME, organism-based; conditions: in vivo
Thyroid gland [36] = test: Biodistribution in Sprague-Dawley rat thyroid at 0.5 to 1 mg/kg, iv after 15 mins by gamma-well counting analysis; type: ADME, organism-based; conditions: in vivo, 0.25 h
Liver [37] = test: Biodistribution in Sprague-Dawley rat liver assessed per organ at 0.5 to 1 mg/kg, iv after 15 mins by gamma-well counting analysis; type: ADME, organism-based; conditions: in vivo, 0.25 h
Kidney [38] = test: Biodistribution in Sprague-Dawley rat kidney at 0.5 to 1 mg/kg, iv after 1 hr by gamma-well counting analysis; type: ADME, organism-based; conditions: in vivo
Thyroid gland [39] = test: Biodistribution in Sprague-Dawley rat thyroid assessed per organ at 0.5 to 1 mg/kg, iv after 15 mins by gamma-well counting analysis; type: ADME, organism-based; conditions: in vivo, 0.25 h
Bone [40] = test: Biodistribution in Sprague-Dawley rat bone at 0.5 to 1 mg/kg, iv after 15 mins by gamma-well counting analysis; type: ADME, organism-based, Bone element; conditions: in vivo, 0.25 h
Small intestine [41] = test: Biodistribution in Sprague-Dawley rat small intestine assessed per organ at 0.5 to 1 mg/kg, iv after 15 mins by gamma-well counting analysis; type: ADME, organism-based; conditions: in vivo, 0.25 h
Spleen [42] = test: Biodistribution in Sprague-Dawley rat spleen at 0.5 to 1 mg/kg, iv after 15 mins by gamma-well counting analysis; type: ADME, organism-based; conditions: in vivo, 0.25 h
Blood [43] = test: Biodistribution in Sprague-Dawley rat blood at 0.5 to 1 mg/kg, iv after 15 mins by gamma-well counting analysis; type: ADME, organism-based; conditions: in vivo, 0.25 h

- Drug uptake (Heart [1]): 0.31 %ID
- Drug uptake (Lung [2]): 1.77 %ID
- Drug uptake (Muscle tissue [3]): 14.87 %ID
- Drug uptake [4]: 6.73 %ID
- Drug uptake (Heart [5]): 0.99 % ID/g
- Drug uptake (Stomach [6]): 1.19 %ID
- Drug uptake (Kidney [7]): 2.8 % ID/g
- Drug uptake (Heart [8]): 0.66 %ID
- Drug uptake (Heart [9]): 0.58 % ID/g
- Drug uptake (Large intestine [10]): 2.42 %ID
- Drug uptake (Blood [11]): 1 %ID
- Drug uptake (Kidney [12]): 1.83 %ID
- Drug uptake [13]: 7.66 %ID
- Drug uptake (Thyroid gland [14]): 0.17 %ID
- Drug uptake (Stomach [15]): 1.26 %ID
- Drug uptake (Bone [16]): 1.94 %ID
- Drug uptake (Large intestine [17]): 1.01 %ID
- Drug uptake (Liver [18]): 2.4 % ID/g
- Drug uptake (Lung [19]): 1.41 %ID
- Drug uptake (Spleen [20]): 0.6 % ID/g
- Drug uptake (Muscle tissue [21]): 0.22 % ID/g
- Drug uptake (Bone [22]): 2.49 %ID
- Drug uptake (Spleen [23]): 0.31 %ID
- Drug uptake (Muscle tissue [24]): 16.64 %ID
- Drug uptake (Bone [25]): 0.17 % ID/g
- Drug uptake (Kidney [26]): 4.38 %ID
- Drug uptake (Spleen [27]): 0.52 %ID
- Drug uptake (Blood [28]): 0.06 % ID/g
- Drug uptake (Liver [29]): 1.59 % ID/g
- Drug uptake (Liver [30]): 12.11 %ID
- Drug uptake (Muscle tissue [31]): 0.2 % ID/g
- Drug uptake (Lung [32]): 1.63 % ID/g
- Drug uptake (Lung [33]): 1.27 % ID/g
- Drug uptake (Blood [34]): 0.74 %ID
- Drug uptake (Small intestine [35]): 15.4 %ID
- Drug uptake (Thyroid gland [36]): 6.06 % ID/g
- Drug uptake (Liver [37]): 20.19 %ID
- Drug uptake (Kidney [38]): 1.16 % ID/g
- Drug uptake (Thyroid gland [39]): 0.12 %ID
- Drug uptake (Bone [40]): 0.22 % ID/g
- Drug uptake (Small intestine [41]): 9.39 %ID
- Drug uptake (Spleen [42]): 0.97 % ID/g
- Drug uptake (Blood [43]): 0.09 % ID/g
Compound: CC(=O)c1cc(NC(=O)c2cccc([125I])c2)ccc1OCC(O)CNC(C)C (racemic)
